Patent publication US20130288897A1, “SYNERGISTIC PESTICIDAL COMPOSITIONS” (Dow AgroSciences LLC, priority 2012, published 2013)
Values joined by “and” are separate entries in the source; they are usually repeats but may differ in a detail not shown here. Identical values can stand only once.

Legend:
Assay type in all cases: in vivo
[1] = tested on: cotton aphid (CA) Aphis gossypii; experiment: Cotton aphid track-sprayer test on cotton: Compound A or imidacloprid with Durango (glyphosate) or Durango Blank and AMS (Example XVI); conditions: for % Control (Negatives to zero) Ave / % control Ave / Colbv predicted values Ave: average of 5 reps
Method: Glyphosate resistant cotton plants (Gossypium hirsutum, cv ‘DP493’) were trimmed to 1 true leaf and infested with mixed stages of cotton aphid (CA) Aphis gossypii 24 h prior to application. Mixed developmental stage CA were infested onto the upper surface of each treated leaf by transferring infested foliage from an insectary colony. Each plant was infested with approximately equal numbers of CA based on visual estimation of aphid density on the infested material. Infested plants were held in the growth chamber (L:D 16:8 and 25° C.). Glyphosate (Durango®, Dow AgroSciences, LLC, Indianapolis, Ind.) was mixed with water at a rate equivalent to 15 ml/L (1.2 qt/Ac). […] A glyphosate free formulation of Durango® was prepared using these same mixing instructions. […] High rate Compound A concentrations were created by diluting Compound A technical material with acetone to achieve a 10 ppm solution. […] […] […] Nozzle height above the canopy was held constant at ca. 30 cm. Plants were evaluated after 3 days from the time of infestation by counting all live cotton aphids on each plant.
[…] Percent control for all treatments was calculated using the rep average for the untreated plants.

[2] = tested on: cotton aphid (CA) Aphis gossypii; experiment: Cotton aphid track-sprayer test on cotton: Compound A with glufosinate (Liberty) and AMS, rates 0.4, 0.1 and 0.025 g/Ha (Example XVIII); conditions: for % control Negatives to zero / CA Counts / Colby Predicted Values: Rep 1-6
Method: (§1) Glyphosate resistant cotton plants (Gossypium hirsutum, cv ‘DP493’) were trimmed to 1 true leaf and infested with mixed stages of cotton aphid (CA) Aphis gossypii 24 hours prior to application. Mixed developmental stage CA were infested onto the upper surface of each treated leaf by transferring infested foliage from an insectary colony. Each plant was infested with approximately equal numbers of CA based on visual estimation of aphid density on the infested material. Infested plants were held in the growth chamber (L:D 16:8 and 25° C.). Glufosinate (Liberty®, Bayer CropScience, Monheim am Rhein, Germany) was mixed with water at a rate equivalent to 5 ml/L (0.4 qt/Ac). […] High rate Compound A concentrations were created by diluting Compound A technical material with acetone to achieve a 20 ppm solution. […] […] […] Nozzle height above the canopy was held constant at ca. 30 cm. Plants were evaluated after 3 days from the time of infestation by counting all live cotton aphids on each plant.

[3] = tested on: cotton aphid (CA) Aphis gossypii; experiment: Cotton aphid track-sprayer test on cotton: Compound A or imidacloprid with glufosinate (Liberty) and AMS (Example XVII); conditions: for Colby Predicted Values Ave: combination with glufosinate
Method: as §1, with “h” for “hours”, “10” for “20”
TABLE 6 contains the calculated Colby values for combinations of treatments as well as the outcome of statistical evaluations between predicted (Colby) and actual measured values. These T-test statistics were only calculated for the 0.2 and 0.05 g/Ha rates. […] These same trends were apparent when Compound A was applied with both glufosinate and AMS.

[4] = 0.0125 g insecticide/Ha with Durango 0.015 ml/ml + AMS 18 g/L
[5] = 0.0125 g insecticide/Ha with Durango 0.015 ml/ml
[6] = 0.0125 g insecticide/Ha with Durango Blank 0.015 ml/ml + AMS 18 g/L
[7] = 0.0125 g insecticide/Ha with Durango Blank 0.015 ml/ml
[8] = 0.05 g insecticide/Ha with Durango 0.015 ml/ml + AMS 18 g/L
[9] = 0.05 g insecticide/Ha with Durango 0.015 ml/ml
[10] = 0.05 g insecticide/Ha with Durango Blank 0.015 ml/ml + AMS 18 g/L
[11] = 0.05 g insecticide/Ha with Durango Blank 0.015 ml/ml
[12] = 0.2 g insecticide/Ha with Durango 0.015 ml/ml + AMS 18 g/L
[13] = 0.2 g insecticide/Ha with Durango 0.015 ml/ml
[14] = 0.2 g insecticide/Ha with Durango Blank 0.015 ml/ml + AMS 18 g/L
[15] = 0.2 g insecticide/Ha with Durango Blank 0.015 ml/ml
[16] = 0.05 g In./HA + Lib. 0.005 ml/ml
[17] = 0.05 g In./HA + Lib. 0.005 ml/ml + AMS 18 g/L
[18] = 0.2 g In./HA + Lib. 0.005 ml/ml
[19] = 0.2 g In./HA + Lib. 0.005 ml/ml + AMS 18 g/L
[20] = 0.8 g In./HA + Lib. 0.005 ml/ml
[21] = 0.8 g In./HA + Lib. 0.005 ml/ml + AMS 18 g/L

O=[N+]([O-])NC1=NCCN1Cc1ccc(Cl)nc1 [Imidacloprid, imidacloprid, reference compound]
% Control (Negatives to zero) Ave [1, 4]: 26.3% | % control Ave [1, 4]: 26.3% | Colbv predicted values Ave [1, 4]: 42.0 | % Control (Negatives to zero) Ave [1, 5]: 17.2% | % control Ave [1, 5]: −0.3% | Colbv predicted values Ave [1, 5]: 35.1 | % Control (Negatives to zero) Ave [1, 6]: 24.7% | % control Ave [1, 6]: −1.1% | Colbv predicted values Ave [1, 6]: 51.7 | % Control (Negatives to zero) Ave [1, 7]: 15.1% | % control Ave [1, 7]: −17.6% | Colbv predicted values Ave [1, 7]: 33.8 | % control Ave ([1]; 0.0125 g insecticide/Ha, no herbicide, no AMS): 15.1% | CA Counts ([1]; 0.05 g insecticide/Ha with Durango 0.015 ml/ml + AMS 18 g/L, Rep 1-5, listed as lmidacloprid): 49 and 50 and 71 and 64 and 54 | % Control (Negatives to zero) Ave [1, 8]: 37.3% | % control Ave [1, 8]: 37.3% | Colbv predicted values Ave [1, 8]: 46.5 | % Control (Negatives to zero) Ave [1, 9]: 25.4% | % control Ave [1, 9]: 21.8% | Colbv predicted values Ave [1, 9]: 38.2 | CA Counts ([1]; 0.05 g insecticide/Ha with Durango Blank 0.015 ml/ml + AMS 18 g/L, Rep 1-5, listed as lmidacloprid): 82 and 81 and 108 and 73 and 95 | % Control (Negatives to zero) Ave [1, 10]: 11.2% | % control Ave [1, 10]: 5.6% | Colbv predicted values Ave [1, 10]: 58.0 | % Control (Negatives to zero) Ave [1, 11]: 24.8% | % control Ave [1, 11]: 20.1% | Colbv predicted values Ave [1, 11]: 41.2 | % control Ave ([1]; 0.05 g insecticide/Ha, no herbicide, no AMS): 29.9% | Colbv predicted values ([1]; 0.2 g insecticide/Ha with Durango 0.015 ml/ml + AMS 18 g/L, Rep 1-5, listed as lmidacloprid): 88.5 and 68.2 and 93.5 and 56.2 and 48.8 | % Control (Negatives to zero) Ave [1, 12]: 30.8% | % control Ave [1, 12]: 23.9% | Colbv predicted values Ave [1, 12]: 71.0 | Colbv predicted values ([1]; 0.2 g insecticide/Ha with Durango 0.015 ml/ml, Rep 1-5, expected additive control, listed as lmidacloprid): 74.5 and 68.6 and 84.8 and 56.2 and 48.8 | % Control (Negatives to zero) Ave [1, 13]: 45.5% | % control Ave [1, 13]: 45.5% | Colbv predicted values Ave [1, 13]: 66.6 | Colbv predicted values ([1]; 0.2 g insecticide/Ha with Durango Blank 0.015 ml/ml + AMS 18 g/L, Rep 1-5, listed as lmidacloprid): 96.1 and 88.7 and 75.9 and 68.4 and 48.8 | % Control (Negatives to zero) Ave [1, 14]: 32.2% | % control Ave [1, 14]: 27.3% | Colbv predicted values Ave [1, 14]: 75.2 | Colbv predicted values ([1]; 0.2 g insecticide/Ha with Durango Blank 0.015 ml/ml, Rep 1-5, listed as lmidacloprid): 84.2 and 67.7 and 71.9 and 56.2 and 48.8 | % Control (Negatives to zero) Ave [1, 15]: 55.3% | % control Ave [1, 15]: 55.3% | Colbv predicted values Ave [1, 15]: 65.7 | synergy assessment (measured vs predicted additive Colby values) ([1]; 0.2 g insecticide/Ha, co-applied with AMS and Durango): antagonism of imidacloprid activity | CA Counts ([1]; 0.2 g insecticide/Ha, no herbicide, no AMS, Rep 1-5, live aphids per plant after 3 days, listed as lmidacloprid): 30 and 51 and 44 and 32 and 38 | % control ([1]; 0.2 g insecticide/Ha, no herbicide, no AMS, Rep 1-5, vs rep average of untreated plants, listed as lmidacloprid): 74.5% and 50.4% and 61.1% and 56.2% and 48.8% | % control Ave ([1]; 0.2 g insecticide/Ha, no herbicide, no AMS): 58.2% | synergy assessment (measured vs predicted additive Colby values) ([1]; 0.2 g insecticide/Ha, only Durango mixed): no effects | synergy assessment (measured vs predicted additive Colby values) ([1]; 0.2 g insecticide/Ha, with Durango blank and AMS): antagonistic effect | synergy assessment (measured vs predicted additive Colby values) ([1]; 0.2 g insecticide/Ha, with Durango blank formulation): no significant difference between predicted and measured activity | % Control (Negatives to zero) Ave [2, 16]: 24.3% | Colby Predicted Values Ave [2, 16]: 45.1 | % Control (Negatives to zero) Ave [2, 17]: 76.9% | Colby Predicted Values Ave [2, 17]: 51.7 | % Control (Negatives to zero) Ave ([2]; 0.05 g In./HA, no Lib., no AMS): 19.0% | % Control (Negatives to zero) Ave [2, 18]: 27.0% | Colby Predicted Values Ave [2, 18]: 54.6 | % Control (Negatives to zero) Ave [2, 19]: 54.3% | Colby Predicted Values Ave [2, 19]: 60.7 | % Control (Negatives to zero) Ave ([2]; 0.2 g In./HA, no Lib., no AMS): 38.7% | % Control (Negatives to zero) Ave [2, 20]: 72.3% | Colby Predicted Values Ave [2, 20]: 86.1 | % Control (Negatives to zero) Ave [2, 21]: 96.5% | Colby Predicted Values Ave [2, 21]: 88.0 | % Control (Negatives to zero) Ave ([2]; 0.8 g In./HA, no Lib., no AMS): 80.0% | % control Negatives to zero [2, 17]: 84.6% and 71.0% and 86.9% and 48.9% and 79.9% and 89.9% | CA Counts ([2]; 0.2 g In./Ha + Liberty 0.005 ml/ml): 187 and 234 and 169 and 198 and 265 and 240 | CA Counts ([2]; 0.2 g In./Ha, no Liberty, no AMS): 154 and 165 and 228 and 241 and 176 and 123 | % control Negatives to zero [2, 20]: 87.5% and 73.3% and 71.0% and 78.3% and 69.2% and 54.7% | Colby Predicted Values [2, 20]: 81.9 and 81.5 and 94.8 and 78.1 and 94.0 and 86.3 | % control Negatives to zero [2, 21]: 96.7% and 94.4% and 96.0% and 94.2% and 98.3% and 99.7% | Colby Predicted Values [2, 21]: 86.8 and 83.6 and 95.2 and 78.2 and 94.5 and 89.7 | % control Negatives to zero ([2]; 0.8 g In./HA, no Lib., no AMS): 75.5% and 81.5% and 91.6% and 73.2% and 74.2% and 84.3% | % control AVE ([3]; 0.0125 g In./Ha + glufosinate 0.005 ml/ml): 66.5% | Colby Predicted Values Ave ([3]; 0.0125 g In./Ha): 53.6 | % control AVE ([3]; 0.05 g In./Ha + glufosinate 0.005 ml/ml): 51.2% | Colby Predicted Values Ave ([3]; 0.05 g In./Ha): 53.8 | % control AVE ([3]; 0.2 g In./Ha + glufosinate 0.005 ml/ml): 58.2% | Colby Predicted Values Ave ([3]; 0.2 g In./Ha): 59.6 | synergy assessment (measured vs predicted Colby values) ([3]; insecticide applied together with glufosinate): not different from the calculated additive values | synergy assessment (measured vs predicted Colby values) ([3]; insecticide with glufosinate and AMS): No evidence of synergy
